Data: patent US20260258004A1, “CRYSTALLINE FORMS OF (6S)-5-[4'-FLUORO-2-(TRIFLUOROMETHYL)BIPHENYL-4-YL]-6-METHYL-3,6- DIHYDRO-2H-l,3,4-OXADIAZIN-2-ONE” (Bayer Aktiengesellschaft, priority 2022, published 2026)
One block for each molecule: values may come before it.

Tests used:
Type in all cases: physicochemical
[1] = Particle size analysis of micronized product, laser diffraction (Sympatec HELOS/RODOS, dry dispersion); conditions: micronized twice, air jet mill; dry dispersion at 4 bar
Text: The instrumental set-up for particle size analysis: • Laser diffraction pattern analyzer (Sympatec HELOS, H1970 & RODOS, R3:0.5/0.9 . . . 175 μm), 100 mm focal length, • Dry dispersion (RODOS) at 4 bar, • Mathematical model (LD 5.9.0.0)-Sympatec Code, basis Fraunhofer Diffraction

[2] = Determination of bulk density during shear tests; conditions: during shear test, normal stress 1.5 kPa
Procedure: Because of the normal stress of 1.5 kPa applied on the top of the lid during the shear test the lid lowers into the shear cell and compresses the powder.
During the shear tests this lowering of the lid is measured and recorded. Since the volume of the bottom ring is known and weight of the sample measured before the beginning of the shear test the bulk density of the sample during the shear test is calculated
[formula] • with: • ρb,shear: Bulk density under shear • mges: total mass of shear cell including powder sample (w/o lid) • mcell: net mass of shear cell (w/o powder sample, w/o lid) • hc: height of the bottom ring • hl: lowering of lid • Acell: bottom area of shear cell
The calculation of the bulk density is done automatically with the evaluation software provided together with the shear tester.

[3] = Hygroscopicity classification applying the Pharmacopeia rules
Text: The shear cell was fully filled with a sample of powder of the compound of formula (I) thereby preventing condensing the powder. Both samples, sample 1 and sample 2, were classified as non-hydroscopic applying the Pharmacopeia rules.

[4] = Particle size distribution by laser diffraction (Malvern Panalytical Mastersizer 3000, Fraunhofer)
Procedure: The particle size distribution was measured by laser diffraction using the Malvern Panalytical Mastersizer 3000.
The samples are again taken from example 1.6 (probe 1) and example 1.5 (probe 2), the same as used in example 4.
The sample to be analyzed is dispersed in 1 drop of Tween 80 the sample is processed according to ISO13320.
Laser diffraction is an often-used method for determination the particle size of dispersed solid materials. A widened laser beam illuminates a cuvette which contains part of the particles. By diffraction on the particles a characteristic pattern can be mapped on the detector. The resulting diffraction image is the additive overlaying of diffraction images of all particles.
Besides the mentioned detector two additional detectors are mounted in order to detect diffraction light in forward direction (FA1,9), in wide angle (LA1,2) and in back direction (BS1,2). The turbidity of the sample is measured by an extinction sensor. This is necessary to ensure a low particle concentration which is necessary to avoid wrong results by multiple diffraction of light at several particles.
The cuvette used was a wet unit where the suspension is pumped in a closed circuit with a dispersing unit that ensures a separation of single particles by shear forces.
The measurement range of the Malvern 3000 covers a particle size from 1 mm (2 mm) down to 20 nm
The calculation of the particle size distribution from the diffraction patterns was done on basis of theory of Fraunhofer.
This assumption is valid for particle sizes of 10 to 50 μm and above. For smaller particles the light scattering of the particle itself due to optical transparency must be considered which is done in the Mie-theory (not used for our probes). Precondition of the application of the Mie-theory is the knowledge of the refractive and absorption index of the dispersed solids.
Q3 is the cumulative volume distribution, e.g. D50=Q(50%) indicates 50% of the volume part of the sample is smaller than particle size of 50 μm.
The particle size is expressed as an equivalent diameter used in the method recommended by the Malvern Analysis Program and as described in ISO13320.

[5] = without ultrasound (US), listed as Probe 1

Particle Size distribution X10 [1]: 1.2 μm | Particle Size distribution X50 [1]: 4 μm | Particle Size distribution X90 [1]: 10 μm
SMILES: C[C@@H]1OC(=O)NN=C1c1ccc(-c2ccc(F)cc2)c(C(F)(F)F)c1 [micronized product, (6S)-5-[4′-fluoro-2-(trifluoromethyl)[biphenyl]-4-yl]-6-methyl-3,6-dihydro-2H-1,3,4-oxadiazin-2-one]

bulk density [2]: 270 kg/m^3 | hygroscopicity classification [3]: non-hydroscopic | difference between Q3[50] of untreated sample and sample treated 300 s with ultrasound [4]: large | D(10) ([4]; 300 s US, listed as Probe 1): 4.02 μm | D(50) ([4]; 300 s US, listed as Probe 1): 44 μm | D(90) ([4]; 300 s US, listed as Probe 1): 128 μm | amount of fines ([4]; after US treatment of 300 s, compared to polymorph C): significantly larger | Cumulative volume distribution Q ([4]; particle size D 0.01 μm, 300 s US): 0% | Cumulative volume distribution Q ([4]; particle size D 0.01 μm, without US): 0% | Cumulative volume distribution Q ([4]; particle size D 0.0114 μm, 300 s US): 0% | Cumulative volume distribution Q ([4]; particle size D 0.0114 μm, without US): 0% | Cumulative volume distribution Q ([4]; particle size D 0.0129 μm, 300 s US): 0% | Cumulative volume distribution Q ([4]; particle size D 0.0129 μm, without US): 0% | Cumulative volume distribution Q ([4]; particle size D 0.0147 μm, 300 s US): 0% | Cumulative volume distribution Q ([4]; particle size D 0.0147 μm, without US): 0% | Cumulative volume distribution Q ([4]; particle size D 0.0167 μm, 300 s US): 0% | Cumulative volume distribution Q ([4]; particle size D 0.0167 μm, without US): 0% | Cumulative volume distribution Q ([4]; particle size D 0.0189 μm, 300 s US): 0% | Cumulative volume distribution Q ([4]; particle size D 0.0189 μm, without US): 0% | Cumulative volume distribution Q ([4]; particle size D 0.0215 μm, 300 s US): 0% | Cumulative volume distribution Q ([4]; particle size D 0.0215 μm, without US): 0% | Cumulative volume distribution Q ([4]; particle size D 0.0244 μm, 300 s US): 0% | Cumulative volume distribution Q ([4]; particle size D 0.0244 μm, without US): 0% | Cumulative volume distribution Q ([4]; particle size D 0.0278 μm, 300 s US): 0% | Cumulative volume distribution Q ([4]; particle size D 0.0278 μm, without US): 0% | Cumulative volume distribution Q ([4]; particle size D 0.0315 μm, 300 s US): 0% | Cumulative volume distribution Q ([4]; particle size D 0.0315 μm, without US): 0% | Cumulative volume distribution Q ([4]; particle size D 0.0358 μm, 300 s US): 0% | Cumulative volume distribution Q ([4]; particle size D 0.0358 μm, without US): 0% | Cumulative volume distribution Q ([4]; particle size D 0.0407 μm, 300 s US): 0% | Cumulative volume distribution Q ([4]; particle size D 0.0407 μm, without US): 0% | Cumulative volume distribution Q ([4]; particle size D 756 μm, 300 s US): 100% | Cumulative volume distribution Q ([4]; particle size D 756 μm, without US, listed as Probe 1): 92.34% | Cumulative volume distribution Q ([4]; particle size D 859 μm, 300 s US): 100% | Cumulative volume distribution Q ([4]; particle size D 859 μm, without US, listed as Probe 1): 96.59% | Cumulative volume distribution Q ([4]; particle size D 976 μm, 300 s US): 100% | Cumulative volume distribution Q ([4]; particle size D 976 μm, without US, listed as Probe 1): 99.14% | Cumulative volume distribution Q ([4]; particle size D 1110 μm, 300 s US): 100% | Cumulative volume distribution Q ([4]; particle size D 1110 μm, without US): 100% | Cumulative volume distribution Q ([4]; particle size D 1260 μm, 300 s US): 100% | Cumulative volume distribution Q ([4]; particle size D 1260 μm, without US): 100% | Cumulative volume distribution Q ([4]; particle size D 1430 μm, 300 s US): 100% | Cumulative volume distribution Q ([4]; particle size D 1430 μm, without US): 100% | Cumulative volume distribution Q ([4]; particle size D 1630 μm, 300 s US): 100% | Cumulative volume distribution Q ([4]; particle size D 1630 μm, without US): 100% | Cumulative volume distribution Q ([4]; particle size D 1850 μm, 300 s US): 100% | Cumulative volume distribution Q ([4]; particle size D 1850 μm, without US): 100% | Cumulative volume distribution Q ([4]; particle size D 2100 μm, 300 s US): 100% | Cumulative volume distribution Q ([4]; particle size D 2100 μm, without US): 100% | Cumulative volume distribution Q ([4]; particle size D 2390 μm, 300 s US): 100% | Cumulative volume distribution Q ([4]; particle size D 2390 μm, without US): 100% | Cumulative volume distribution Q ([4]; particle size D 2710 μm, 300 s US): 100% | Cumulative volume distribution Q ([4]; particle size D 2710 μm, without US): 100% | Cumulative volume distribution Q ([4]; particle size D 3080 μm, 300 s US): 100% | Cumulative volume distribution Q ([4]; particle size D 3080 μm, without US): 100% | Cumulative volume distribution Q ([4]; particle size D 3500 μm, 300 s US): 100% | Cumulative volume distribution Q ([4]; particle size D 3500 μm, without US): 100% | D(10) [4, 5]: 165 μm | D(50) [4, 5]: 404 μm | D(90) [4, 5]: 720 μm
SMILES: C[C@@H]1OC(=O)NN=C1c1ccc(-c2ccc(F)cc2)c(C(F)(F)F)c1 [polymorph A, (6S)-5-[4′-Fluoro-2-(trifluoromethyl)biphenyl-4-yl]-6-methyl-3,6-dihydro-2H-1,3,4-oxadiazin-2-one]
particle size distribution compared to polymorph C ([4]; after ultrasound treatment): significantly smaller particle size and broader distribution | particle size distribution compared to polymorph C ([4]; without ultrasound treatment): significantly broader particle size distribution and larger particles
